Activity calls are given as the source filed them. The calls are words filed in the database; no cut-off is given here.
Assays:
[1] = biological target: Aurora kinase B (Homo sapiens) (UniProt Q96GD4); test: Inhibition of Aurora B in human MOLM-13 cells assessed as decrease in histone H3 phosphorylation at Ser10 at 10 nM incubated for 24 hrs by flow cytometry (reference value: 43 %); format: cell-based; parameters: scale not given: the % may be the effect or the level left
[2] = biological target: Aurora kinase B (Homo sapiens) (UniProt Q96GD4); test: Inhibition of Aurora B in human MV4-11 cells assessed as decrease in histone H3 phosphorylation at Ser10 at 10 nM incubated for 24 hrs by flow cytometry (reference value: 52 %); format: cell-based; parameters: scale not given: the % may be the effect or the level left
MOLM-13 [3] = test: Antitumor activity against human MOLM-13 cells xenografted in immunodeficient nude BALB/c mouse model assessed as suppression of tumor growth at 25 mg/kg, ip administered 4 times a week for 2 weeks measured twice per week; format: functional, organism-based
MOLM-13 [4] = test: Antitumor activity against human MOLM-13 cells xenografted in immunodeficient nude BALB/c mouse model assessed as suppression of tumor weight at 25 mg/kg, ip administered 4 times a week for 2 weeks measured twice per week; format: functional, organism-based
MOLM-13 [5] = test: Antitumor activity against human MOLM-13 cells xenografted in immunodeficient nude BALB/c mouse model assessed as decrease in tumor volume at 25 mg/kg, ip administered 4 times a week for 2 weeks measured twice per week (reference value: 1261 +/- 200 mm3); format: functional
MOLM-13 [6] = test: Antitumor activity against human MOLM-13 cells xenografted in immunodeficient nude BALB/c mouse model assessed as decrease in tumor weight at 25 mg/kg, ip administered 4 times a week for 2 weeks measured twice per week (reference value: 583 +/- 150 mg); format: functional
MOLM-13 [7] = test: Antitumor activity against human MOLM-13 cells xenografted in immunodeficient nude BALB/c mouse model assessed as necrotic tissue with infiltration of phagocytic cells at 25 mg/kg, ip administered 4 times a week for 2 weeks by H and E staining based analysis; format: functional, organism-based
MOLM-13 [8] = test: Antitumor activity against human MOLM-13 cells xenografted in immunodeficient nude BALB/c mouse model assessed as absence of leukemia cells at 25 mg/kg, ip administered 4 times a week for 2 weeks by H and E staining based analysis; format: functional, organism-based
MOLM-13 [9] = test: In vivo antiproliferative activity against human MOLM-13 cells xenografted in immunodeficient nude BALB/c mouse model assessed as inhibition of cell proliferation at 5 mg/kg, ip administered 4 times a week for 2 weeks relative to control; format: functional; conditions: MOLM-13, 336 h
MOLM-13 [10] = test: Antitumor activity against human MOLM-13 cells xenografted in immunodeficient nude BALB/c mouse model assessed as reduction in tumor weight at 5 mg/kg, ip administered 4 times a week for 2 weeks in presence of vincristine; format: functional, organism-based
MOLM-13 [11] = test: Antitumor activity against human MOLM-13 cells xenografted in immunodeficient nude BALB/c mouse model assessed as tumor growth inhibition at 5 mg/kg, ip administered 4 times a week for 2 weeks in presence of vincristine relative to control; format: functional; conditions: MOLM-13, 336 h
MOLM-13 [12] = test: Antitumor activity against human MOLM-13 cells xenografted in immunodeficient nude BALB/c mouse model assessed as reduction in tumor growth at 5 mg/kg, ip administered 4 times a week for 2 weeks in presence of daunorubicin; format: functional, organism-based
[13] = Toxicity in immunodeficient nude BALB/c mouse model xenografted with human MOLM-13 cells assessed as signs of body wasting at 25 mg/kg, ip administered 4 times a week for 2 weeks measured twice per week; format: organism-based; conditions: in vivo, 336 h
[14] = Toxicity in immunodeficient nude BALB/c mouse model xenografted with human MOLM-13 cells assessed as signs of toxicity at 25 mg/kg, ip administered 4 times a week for 2 weeks measured twice per week; format: organism-based; conditions: in vivo, 336 h
[15] = Toxicity in immunodeficient nude BALB/c mouse model xenografted with human MOLM-13 cells assessed as signs of body wasting at 5 mg/kg, ip administered 4 times a week for 2 weeks in presence of vincristine; format: organism-based; conditions: in vivo, 336 h
[16] = Toxicity in immunodeficient nude BALB/c mouse model xenografted with human MOLM-13 cells at 1 mg/kg, ip administered 6 times in 2 weeks; format: organism-based; conditions: in vivo, 336 h
[17] = Inhibition of cell proliferation of human PALL-2 cells incubated for 48 hrs by 3H-thymidine uptake assay; format: functional, cell-based
MOLM-13 [18] = test: Inhibition of cell proliferation of human MOLM-13 cells incubated for 48 hrs by 3H-thymidine uptake assay; format: functional, cell-based
MV4-11 [19] = test: Inhibition of cell proliferation of human MV4-11 cells incubated for 48 hrs by 3H-thymidine uptake assay; format: functional, cell-based
MOLM-13 [20] = test: Inhibition of clonogenic growth in human MOLM-13 cells incubated for 10 days; format: functional, cell-based; conditions: MOLM-13, 240 h
MV4-11 [21] = test: Inhibition of clonogenic growth in human MV4-11 cells incubated for 10 days; format: functional, cell-based; conditions: MV4-11, 240 h
MOLM-13 [22] = test: Induction of apoptosis in human MOLM-13 cells assessed as early apoptotic cells at 1 nM incubated for 24 hrs by annexin V/PI staining based flow cytometry (reference value: 2.4 %); format: functional
MOLM-13 [23] = test: Induction of apoptosis in human MOLM-13 cells assessed as early apoptotic cells at 3 nM incubated for 24 hrs by annexin V/PI staining based flow cytometry (reference value: 2.4 %); format: functional
MOLM-13 [24] = test: Induction of apoptosis in human MOLM-13 cells assessed as early apoptotic cells at 10 nM incubated for 24 hrs by annexin V/PI staining based flow cytometry (reference value: 2.4 %); format: functional
MOLM-13 [25] = test: Induction of apoptosis in human MOLM-13 cells assessed as late apoptotic cells at 1 nM incubated for 24 hrs by annexin V/PI staining based flow cytometry (reference value: 2.2 %); format: functional
MOLM-13 [26] = test: Induction of apoptosis in human MOLM-13 cells assessed as late apoptotic cells at 3 nM incubated for 24 hrs by annexin V/PI staining based flow cytometry (reference value: 2.2 %); format: functional
MOLM-13 [27] = test: Induction of apoptosis in human MOLM-13 cells assessed as late apoptotic cells at 10 nM incubated for 24 hrs by annexin V/PI staining based flow cytometry (reference value: 2.2 %); format: functional
MOLM-13 [28] = test: Induction of apoptosis in human MOLM-13 cells assessed as early apoptotic cells at 1 nM incubated for 48 hrs by annexin V/PI staining based flow cytometry (reference value: 3.2 %); format: functional
MOLM-13 [29] = test: Induction of apoptosis in human MOLM-13 cells assessed as early apoptotic cells at 3 nM incubated for 48 hrs by annexin V/PI staining based flow cytometry (reference value: 3.2 %); format: functional
MOLM-13 [30] = test: Induction of apoptosis in human MOLM-13 cells assessed as early apoptotic cells at 10 nM incubated for 48 hrs by annexin V/PI staining based flow cytometry (reference value: 3.2 %); format: functional
MOLM-13 [31] = test: Induction of apoptosis in human MOLM-13 cells assessed as late apoptotic cells at 1 nM incubated for 48 hrs by annexin V/PI staining based flow cytometry (reference value: 1.9 %); format: functional
MOLM-13 [32] = test: Induction of apoptosis in human MOLM-13 cells assessed as late apoptotic cells at 3 nM incubated for 48 hrs by annexin V/PI staining based flow cytometry (reference value: 1.9 %); format: functional
MOLM-13 [33] = test: Induction of apoptosis in human MOLM-13 cells assessed as late apoptotic cells at 10 nM incubated for 48 hrs by annexin V/PI staining based flow cytometry (reference value: 1.9 %); format: functional
[34] = Antiproliferative activity against human PALL-2 cells assessed as inhibition of cell proliferation at 3 nM by 3H-thymidine incorporation assay relative to control; format: functional
[35] = Synergistic antiproliferative activity against human PALL-2 cells assessed as inhibition of cell proliferation at 0.3 to 3 nM in presence of vincristine by 3H-thymidine incorporation assay relative to control; format: functional; conditions: dose 0.3-3 nM
PALL-2 [36] = test: Induction of apoptosis in human PALL-2 cells assessed as increase in cleaved PARP level at 1 to 3 nM in presence of vincristine by immunoblot analysis; format: functional, cell-based; conditions: dose 1-3 nM
MOLM-13 [37] = test: Induction of apoptosis in human MOLM-13 cells assessed as increase in cleaved PARP level at 1 to 3 nM in presence of vincristine by immunoblot analysis; format: functional, cell-based; conditions: dose 1-3 nM
MOLM-13 [38] = test: Induction of apoptosis in human MOLM-13 cells assessed as increase in cleaved PARP level at 3 to 10 nM in presence of daunorubicin by immunoblot analysis; format: functional, cell-based; conditions: dose 3-10 nM
[39] = biological target: Aurora kinase B (Homo sapiens) (UniProt Q96GD4); conditions: MOLM-13, dose <= 10.0 nM, time 24-48 hrs
Description: Inhibition of Aurora B in human MOLM-13 cells assessed as increase in 4N/8N DNA content measured for 24 to 48 hrs by FACS analysis

[40] = biological target: Aurora kinase B (Homo sapiens) (UniProt Q96GD4); conditions: MOLM-13, dose <= 10.0 nM, time 24-48 hrs; remark: listed apart in the source
Description: Inhibition of Aurora B in human MOLM-13 cells assessed as increase in 4N/8N DNA content upto 10 nM by FACS analysis

[41] = biological target: Aurora kinase B (Homo sapiens) (UniProt Q96GD4); conditions: PALL-2, dose <= 10.0 nM, time 24-48 hrs
Description: Inhibition of Aurora B in human PALL-2 cells assessed as increase in 4N/8N DNA content measured for 24 to 48 hrs by FACS analysis

[42] = biological target: Aurora kinase B (Homo sapiens) (UniProt Q96GD4); conditions: PALL-2, dose <= 10.0 nM, time 24-48 hrs; remark: listed apart in the source
Description: Inhibition of Aurora B in human PALL-2 cells assessed as increase in 4N/8N DNA content upto 10 nM by FACS analysis

MOLM-13 [43] = conditions: Homo sapiens, dose 1-10 nM
MOLM-13 [44] = conditions: Homo sapiens, dose 1.0 nM
[45] = Antiproliferative activity against human PALL-2 cells assessed as inhibition of cell proliferation at 0.3 uM by 3H-thymidine incorporation assay relative to control; format: functional
PALL-2 [46] = test: Induction of apoptosis in human PALL-2 cells assessed as increase in cleaved PARP level by immunoblot analysis; format: functional, cell-based; conditions: dose 0.1-1 µM
MOLM-13 [47] = test: Induction of apoptosis in human MOLM-13 cells assessed as increase in cleaved PARP level by immunoblot analysis; format: functional, cell-based; conditions: dose 0.1-1 µM
MOLM-13 [48] = test: In vivo antiproliferative activity against human MOLM-13 cells xenografted in immunodeficient nude BALB/c mouse model assessed as inhibition of cell proliferation at 0.2 mg/kg, ip administered for 2 weeks on every another day for first week relative to control; format: functional; conditions: MOLM-13, 336 h

Aurora kinase B (Homo sapiens), sequence (Q96GD4 whole entry): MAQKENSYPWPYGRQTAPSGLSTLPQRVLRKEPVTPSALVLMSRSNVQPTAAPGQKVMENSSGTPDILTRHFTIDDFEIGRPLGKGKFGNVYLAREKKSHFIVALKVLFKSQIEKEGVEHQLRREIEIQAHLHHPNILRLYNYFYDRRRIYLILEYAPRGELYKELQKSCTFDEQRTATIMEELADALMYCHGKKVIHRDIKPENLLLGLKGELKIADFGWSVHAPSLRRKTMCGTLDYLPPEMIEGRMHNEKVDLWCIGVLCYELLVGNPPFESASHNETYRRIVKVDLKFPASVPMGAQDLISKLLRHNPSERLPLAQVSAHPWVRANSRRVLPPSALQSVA

## CCN(CCCOc1ccc2c(Nc3cc(CC(=O)Nc4cccc(F)c4)[nH]n3)ncnc2c1)CCOP(=O)(O)O [BARASERTIB]
[1]
  Activity: 25%
[2]
  Activity: 19%
MOLM-13 [3]
  Activity: Active
MOLM-13 [4]
  Activity: Active
MOLM-13 [5]
  Activity: 71 mm3
MOLM-13 [6]
  Activity: 78 mg
MOLM-13 [7]
  Activity: Active
MOLM-13 [8]
  Activity: Active
MOLM-13 [9]
  inhibition in vivo at 5 mg/kg: ~50%
MOLM-13 [10]
  Activity: Active
MOLM-13 [11]
  inhibition in vivo at 5 mg/kg: ~100%
MOLM-13 [12]
  Activity: Active

## CCN(CCCOc1ccc2c(Nc3cc(CC(=O)Nc4cccc(F)c4)n[nH]3)ncnc2c1)CCOP(=O)(O)O [BARASERTIB]
[13]
  Activity: Non-Toxic
[14]
  Activity: Non-Toxic
[15]
  Activity: Non-Toxic

## COc1cccc2c1C(=O)c1c(O)c3c(c(O)c1C2=O)C[C@@](O)(C(C)=O)C[C@@H]3O[C@H]1C[C@H](N)[C@H](O)[C@H](C)O1 [DAUNORUBICIN]
[16]
  Activity: Toxic

## CCN(CCO)CCCOc1ccc2c(Nc3cc(CC(=O)Nc4cccc(F)c4)[nH]n3)ncnc2c1 [DEFOSBARASERTIB]
[17]
  IC50: 5 nM
MOLM-13 [18]
  IC50: 12 nM
MV4-11 [19]
  IC50: 8 nM
MOLM-13 [20]
  IC50: 1 nM
MV4-11 [21]
  IC50: 2.8 nM
MOLM-13 [22]
  Activity: 3.1%
MOLM-13 [23]
  Activity: 3.4%
MOLM-13 [24]
  Activity: 6.5%
MOLM-13 [25]
  Activity: 4.3%
MOLM-13 [26]
  Activity: 3.8%
MOLM-13 [27]
  Activity: 7.1%
MOLM-13 [28]
  Activity: 1.9%
MOLM-13 [29]
  Activity: 2.2%
MOLM-13 [30]
  Activity: 36%
MOLM-13 [31]
  Activity: 3.8%
MOLM-13 [32]
  Activity: 3.5%
MOLM-13 [33]
  Activity: 15%
[34]
  inhibition at 0.003 µM: ~35%
[35]
  inhibition (INH): ~80%
PALL-2 [36]
  Activity: Active
MOLM-13 [37]
  Activity: Active
MOLM-13 [38]
  Activity: Active
[39]
  inhibition: Dose-Dependent Effect
[40]
  inhibition: Tde
[41]
  inhibition: Dose-Dependent Effect
[42]
  inhibition: Tde
MOLM-13 [43]
  inhibition: Active
MOLM-13 [44]
  inhibition: Active

## CC[C@]1(O)C[C@H]2CN(CCc3c([nH]c4ccccc34)[C@@](C(=O)OC)(c3cc4c(cc3OC)N(C=O)[C@H]3[C@@](O)(C(=O)OC)[C@H](OC(C)=O)[C@]5(CC)C=CCN6CC[C@]43[C@@H]65)C2)C1 [VINCRISTINE]
[45]
  inhibition at 0.3 µM: ~35%
PALL-2 [46]
  Activity: Dose-Dependent Effect
MOLM-13 [47]
  Activity: Dose-Dependent Effect
MOLM-13 [48]
  inhibition in vivo at 0.2 mg/kg: ~50%

Reference: ChEMBL document CHEMBL5653599, “AZD1152, a novel and selective aurora B kinase inhibitor, induces growth arrest, apoptosis, and sensitization for tubulin depolymerizing agent or topoisomerase II inhibitor in human acute leukemia cells in vitro and in vivo” (Blood, 2007)
